Legend:
[1] = system: adrenaline-induced arrhythmia in rats; assay: Prophylactic antiarrhythmic activity in adrenaline-induced arrhythmia; format: in vivo, rat
Description: The experiment was carried out according to the method described by Szekeres and Papp. Normotensive rats were anesthetized with thiopental (75 mg/kg ip). Adrenaline was administered at the dose of 20 µg/kg to induce heart rhythm disturbances. The studied compound was injected intraperitoneally 45 min before the arrhythmogen. The electrocardiogram (ECG) was recorded during the first 2 min and in the 5th, 10th, and 15th min after the adrenaline injection. The criterion of prophylactic antiarrhythmic activity was the lack of extrasystoles and inhibition of cardiac arrhythmia in comparison with the control group. The ED50 (a dose producing a 50% inhibition of ventricular contractions) was determined by computer log-probit analysis according to Litchfield and Wilcoxon.

normotensive rats [2] = assay: Effect on a normal electrocardiogram in rats; format: in vivo; design: Rate: unit not given here; settings: rat; for PR / QRS: in ms (unit assumed)
Description: To verify the influence of the tested compound on the normal electrocardiogram (ECG), the experiment was performed. Aspel ASCARD apparatus (standard II lead, with tape speed 50 mm/s and voltage calibration 1 mV = 1 cm) was used for ECG measurements. Normotensive rats were anesthetized with thiopental (75 mg/kg ip). The ECG was recorded prior and 5, 10, 15, 20, 30, 40, 50, 60, and 80 min after intraperitoneal administration of the tested compound. The influence on PQ, QTc interval, QRS complex, and heart rate was evaluated. Bazzett’s formula, QTc = QT/√RR, was used to calculate QTc.

normotensive rats [3] = assay: Influence on blood pressure in normotensive rats; format: in vivo, rat
Description: Normotensive rats were anesthetized with thiopental (75 mg/kg ip). The right carotid artery was cannulated with a polyethylene tube filled with heparin solution to allow pressure measurements, using a Datamax apparatus (Columbus Instruments, Columbus, OH, USA). The tested compound was administered intraperitoneally after 15 min of stabilization period and its effect on blood pressure was measured.

5-HT1A receptors = system: 5-HT1A receptors; design: method as in PMID 34451841; settings: previous studies; cited from earlier work
D2 receptors = system: D2 receptors; design: method as in PMID 34451841; settings: previous studies; cited from earlier work
mice = system: mice; design: method as in PMID 34451841; settings: previous studies; cited from earlier work
[4] = 1.25 mg/kg ip, from 5 min after injection

- effect on PR (normotensive rats [2]; 10 mg/kg): no effect
- effect on QRS (normotensive rats [2]; 10 mg/kg): no effect
- Rate (normotensive rats [2]; 10 mg/kg ip, 0 min): 357.1 ± 22.6
- PR (normotensive rats [2]; 10 mg/kg ip, 0 min): 53.9 ± 2.8
- QRS (normotensive rats [2]; 10 mg/kg ip, 0 min): 22.6 ± 1.8
- Rate (normotensive rats [2]; 10 mg/kg ip, 5 min): 347.3 ± 25.2
- PR (normotensive rats [2]; 10 mg/kg ip, 5 min): 53.0 ± 3.3
- QRS (normotensive rats [2]; 10 mg/kg ip, 5 min): 21.5 ± 1.4
- Rate (normotensive rats [2]; 10 mg/kg ip, 10 min): 347.9 ± 29.2
- PR (normotensive rats [2]; 10 mg/kg ip, 10 min): 55.8 ± 2.0
- QRS (normotensive rats [2]; 10 mg/kg ip, 10 min): 23.2 ± 3.6
- Rate (normotensive rats [2]; 10 mg/kg ip, 15 min): 345.0 ± 32.7
- PR (normotensive rats [2]; 10 mg/kg ip, 15 min): 54.9 ± 2.4
- QRS (normotensive rats [2]; 10 mg/kg ip, 15 min): 23.5 ± 2.6
- Rate (normotensive rats [2]; 10 mg/kg ip, 20 min): 343.4 ± 33.6
- PR (normotensive rats [2]; 10 mg/kg ip, 20 min): 53.1 ± 4.4
- QRS (normotensive rats [2]; 10 mg/kg ip, 20 min): 23.6 ± 2.9
- Rate (normotensive rats [2]; 10 mg/kg ip, 30 min): 338.5 ± 26.3
- PR (normotensive rats [2]; 10 mg/kg ip, 30 min): 52.2 ± 4.4
- QRS (normotensive rats [2]; 10 mg/kg ip, 30 min): 22.9 ± 1.6
- Rate (normotensive rats [2]; 10 mg/kg ip, 40 min): 337.5 ± 25.0
- PR (normotensive rats [2]; 10 mg/kg ip, 40 min): 55.6 ± 2.6
- QRS (normotensive rats [2]; 10 mg/kg ip, 40 min): 24.5 ± 1.8
- Rate (normotensive rats [2]; 10 mg/kg ip, 50 min): 342.2 ± 25.8
- PR (normotensive rats [2]; 10 mg/kg ip, 50 min): 53.6 ± 4.4
- QRS (normotensive rats [2]; 10 mg/kg ip, 50 min): 23.9 ± 2.5
- Rate (normotensive rats [2]; 10 mg/kg ip, 60 min): 344.5 ± 28.9
- PR (normotensive rats [2]; 10 mg/kg ip, 60 min): 54.7 ± 3.1
- QRS (normotensive rats [2]; 10 mg/kg ip, 60 min): 23.2 ± 1.9
- Rate (normotensive rats [2]; 10 mg/kg ip, 80 min): 350.7 ± 28.1
- PR (normotensive rats [2]; 10 mg/kg ip, 80 min): 54.9 ± 4.2
- QRS (normotensive rats [2]; 10 mg/kg ip, 80 min): 22.0 ± 1.4
- effect on PR (normotensive rats [2]; 20 mg/kg): did not affect
- effect on QRS (normotensive rats [2]; 20 mg/kg): did not affect
- Rate (normotensive rats [2]; 20 mg/kg ip, 0 min): 317.4 ± 26.0
- PR (normotensive rats [2]; 20 mg/kg ip, 0 min): 53.1 ± 2.8
- QRS (normotensive rats [2]; 20 mg/kg ip, 0 min): 21.8 ± 1.7
- Rate (normotensive rats [2]; 20 mg/kg ip, 5 min): 304.2 ± 32.0
- PR (normotensive rats [2]; 20 mg/kg ip, 5 min): 52.4 ± 3.4
- QRS (normotensive rats [2]; 20 mg/kg ip, 5 min): 20.9 ± 1.2
- Rate (normotensive rats [2]; 20 mg/kg ip, 10 min): 278.4 ± 41.8
- PR (normotensive rats [2]; 20 mg/kg ip, 10 min): 55.3 ± 1.7
- QRS (normotensive rats [2]; 20 mg/kg ip, 10 min): 22.7 ± 3.4
- Rate (normotensive rats [2]; 20 mg/kg ip, 15 min): 256.2 ± 52.1
- PR (normotensive rats [2]; 20 mg/kg ip, 15 min): 54.2 ± 2.1
- QRS (normotensive rats [2]; 20 mg/kg ip, 15 min): 22.8 ± 2.2
- Rate (normotensive rats [2]; 20 mg/kg ip, 20 min): 249.9 ± 53.5
- PR (normotensive rats [2]; 20 mg/kg ip, 20 min): 52.1 ± 4.2
- QRS (normotensive rats [2]; 20 mg/kg ip, 20 min): 22.7 ± 2.5
- Rate (normotensive rats [2]; 20 mg/kg ip, 30 min): 246.5 ± 55.6
- PR (normotensive rats [2]; 20 mg/kg ip, 30 min): 51.3 ± 4.4
- QRS (normotensive rats [2]; 20 mg/kg ip, 30 min): 22.0 ± 1.5
- Rate (normotensive rats [2]; 20 mg/kg ip, 40 min): 242.1 ± 53.5
- PR (normotensive rats [2]; 20 mg/kg ip, 40 min): 54.6 ± 2.4
- QRS (normotensive rats [2]; 20 mg/kg ip, 40 min): 23.6 ± 1.5
- Rate (normotensive rats [2]; 20 mg/kg ip, 50 min): 239.2 ± 55.4
- PR (normotensive rats [2]; 20 mg/kg ip, 50 min): 52.5 ± 4.6
- QRS (normotensive rats [2]; 20 mg/kg ip, 50 min): 22.9 ± 2.3
- Rate (normotensive rats [2]; 20 mg/kg ip, 60 min): 239.5 ± 56.6
- PR (normotensive rats [2]; 20 mg/kg ip, 60 min): 53.7 ± 3.0
- QRS (normotensive rats [2]; 20 mg/kg ip, 60 min): 22.1 ± 1.7
- Rate (normotensive rats [2]; 20 mg/kg ip, 80 min): 241.0 ± 64.1
- PR (normotensive rats [2]; 20 mg/kg ip, 80 min): 53.8 ± 4.1
- QRS (normotensive rats [2]; 20 mg/kg ip, 80 min): 21.0 ± 1.3
SMILES: CCC(CN1CCN(c2ccccc2OC)CC1)NCCCOc1c(C)cccc1C.Cl.Cl (stereo not drawn) [HBK-10, N-(3-(2,6-dimethylphenoxy)propyl)-1-(4-(2-methoxyphenyl)piperazin-1-yl)butan-2-amine dihydrochloride]
- ED50 lower than for carvedilol ([1]; HBK-10 ip vs carvedilol iv): ~3 fold
- Extrasystoles (%) ([1]; rat, 0.0625 mg/kg ip 45 min before adrenaline 20 μg/kg iv): 83.3%
- Extrasystoles (%) ([1]; rat, 0.125 mg/kg ip 45 min before adrenaline 20 μg/kg iv): 50%
- Extrasystoles (%) ([1]; rat, 0.25 mg/kg ip 45 min before adrenaline 20 μg/kg iv): 16.7%
- ED50 ([1]; rat, ip 45 min before adrenaline 20 μg/kg iv, read-out: ED50 (extrasystoles caused by adrenaline)): 0.125 mg/kg
- dose influencing normal ECG relative to median effective dose in adrenaline-induced arrhythmia model (normotensive rats [2]): 160 fold
- effect on QTc (normotensive rats [2]; 10 mg/kg): no effect
- effect on heart rate (normotensive rats [2]; 10 mg/kg): no effect
- QTc (normotensive rats [2]; 10 mg/kg ip, 0 min): 215.3 ± 19.3
- QTc (normotensive rats [2]; 10 mg/kg ip, 5 min): 213.2 ± 20.8
- QTc (normotensive rats [2]; 10 mg/kg ip, 10 min): 214.4 ± 20.0
- QTc (normotensive rats [2]; 10 mg/kg ip, 15 min): 212.4 ± 12.3
- QTc (normotensive rats [2]; 10 mg/kg ip, 20 min): 216.7 ± 13.8
- QTc (normotensive rats [2]; 10 mg/kg ip, 30 min): 213.7 ± 19.0
- QTc (normotensive rats [2]; 10 mg/kg ip, 40 min): 221.4 ± 16.9
- QTc (normotensive rats [2]; 10 mg/kg ip, 50 min): 218.8 ± 11.8
- QTc (normotensive rats [2]; 10 mg/kg ip, 60 min): 217.4 ± 22.0
- QTc (normotensive rats [2]; 10 mg/kg ip, 80 min): 218.3 ± 25.5
- QTc (normotensive rats [2]; 20 mg/kg ip, 0 min): 198.4 ± 6.1
- QTc (normotensive rats [2]; 20 mg/kg ip, 5 min): 190.9 ± 8.4
- QTc (normotensive rats [2]; 20 mg/kg ip, 10 min): 187.8 ± 14.7
- QTc (normotensive rats [2]; 20 mg/kg ip, 15 min): 179.4 ± 16.4
- QTc (normotensive rats [2]; 20 mg/kg ip, 20 min): 178.9 ± 21.9
- QTc (normotensive rats [2]; 20 mg/kg ip, 30 min): 178 ± 21.6 ms
- QTc (normotensive rats [2]; 20 mg/kg ip, 40 min): 175.7 ± 20.5
- QTc (normotensive rats [2]; 20 mg/kg ip, 50 min): 179.3 ± 20.7
- QTc (normotensive rats [2]; 20 mg/kg ip, 80 min): 173.0 ± 6.6
- decrease of heart rate (normotensive rats [2]; 20 mg/kg, 10 min after administration): 12.3%
- decrease of heart rate (normotensive rats [2]; 20 mg/kg, 15 min after administration): 19.3%
- decrease of QTc (normotensive rats [2]; 20 mg/kg, 15 min post injection): 9.6%
- decrease of heart rate (normotensive rats [2]; 20 mg/kg, 20 min after administration): 21.3%
- decrease of QTc (normotensive rats [2]; 20 mg/kg, 20 min post injection): 9.8%
- decrease of heart rate (normotensive rats [2]; 20 mg/kg, 30 min after administration): 22.3%
- decrease of QTc (normotensive rats [2]; 20 mg/kg, 30 min post injection): 10.5%
- decrease of heart rate (normotensive rats [2]; 20 mg/kg, 40 min after administration): 23.7%
- decrease of QTc (normotensive rats [2]; 20 mg/kg, 40 min post injection): 11.4%
- decrease of heart rate (normotensive rats [2]; 20 mg/kg, 50 min after administration): 24.6%
- decrease of QTc (normotensive rats [2]; 20 mg/kg, 50 min post injection): 9.6%
- decrease of heart rate (normotensive rats [2]; 20 mg/kg, 60 min after administration): 24.5%
- decrease of QTc (normotensive rats [2]; 20 mg/kg, 60 min post injection): 8.3%
- decrease of heart rate (normotensive rats [2]; 20 mg/kg, 80 min after administration): 24.1%
- decrease of QTc (normotensive rats [2]; 20 mg/kg, 80 min post injection): 12.8%
- effect on diastolic blood pressure (normotensive rats [3]; 0.625 mg/kg ip): did not affect
- effect on systolic blood pressure (normotensive rats [3]; 0.625 mg/kg ip): did not affect
- reduction of diastolic blood pressure (normotensive rats [3]; [4]): 12.5–18.3%
- reduction of systolic blood pressure (normotensive rats [3]; [4]): 11.2–18.3%
- dose reducing blood pressure relative to median effective dose in adrenaline-induced model (normotensive rats [3]; single ip administration): 10 fold
- properties at 5-HT1A receptors (5-HT1A receptors): antagonistic properties
- properties at D2 receptors (D2 receptors): antagonistic properties
- antidepressant-like effect (mice): antidepressant-like effect

Reference: PMC9609429 (Pharmaceuticals, 2022)
